This is an account of results in patent US20250026752A1, “POSITIVE ALLOSTERIC MODULATORS OF THE MUSCARINIC ACETYLCHOLINE RECEPTOR M4” (Vanderbilt University, priority 2021, published 2025).

This experiment addresses T1, human mAChR M4 (Homo sapiens, UniProt P08173).
T1 construct: expressed in transfected cells; host or cells: CHO-K1 (ATCC), stably expressing hM4 and Gqi5
T1 sequence (P08173 1-479): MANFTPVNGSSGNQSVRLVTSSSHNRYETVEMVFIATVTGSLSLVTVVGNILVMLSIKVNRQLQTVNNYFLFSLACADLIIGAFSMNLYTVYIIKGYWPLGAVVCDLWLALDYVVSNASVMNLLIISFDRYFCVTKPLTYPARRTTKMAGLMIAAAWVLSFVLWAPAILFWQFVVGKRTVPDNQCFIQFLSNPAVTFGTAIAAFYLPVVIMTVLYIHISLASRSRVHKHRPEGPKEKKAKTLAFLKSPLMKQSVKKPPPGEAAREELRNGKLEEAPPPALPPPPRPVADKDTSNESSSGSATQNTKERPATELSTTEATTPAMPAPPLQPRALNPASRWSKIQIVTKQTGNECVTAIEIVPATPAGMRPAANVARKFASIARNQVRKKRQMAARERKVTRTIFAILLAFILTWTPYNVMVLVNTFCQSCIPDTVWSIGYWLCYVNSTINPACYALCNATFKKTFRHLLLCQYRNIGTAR
The experiment can be described thus: mAChR M4 cell-based functional assay: calcium flux (Fluo-4, FDSS), positive allosteric modulator activity on the EC20 acetylcholine response, hM4-Gqi5 CHO-K1 cells. The settings on record: for Emax at 30 µM: CHO-K1, human M4, % ACh maximum at 30 μM; for EC50: human M4, PAM activity on EC20 acetylcholine response, calcium flux, read-out: Human M4 EC50. As for the experimental part: Human M4 cDNA, along with the chimeric G protein Gqi5, were transfected into Chinese hamster ovary (CHO-K1) cells purchased from the American Type Culture Collection using commercially available Lipofectamine 2000 transfection reagent (Dalby, B. et al., Methods (2004) 33(2), 95-103). hM4-Gqi5 cells were grown in Ham's F-12 medium containing 10% heat-inactivated fetal bovine serum (FBS), 20 mM […], 50 μg/mL G418 sulfate (CAS #108321-42-2), and 500 μg/mL Hygromycin B. rM4-Gqi5 cells were grown in DMEM containing 10% heat-inactivated FBS, 20 mM HEPES, 400 μg/mL G418 sulfate, and 500 μg/mL Hygromycin B.
For high throughput measurement of agonist-evoked increases in intracellular calcium, CHO-K1 cells stably expressing muscarinic receptors were plated in growth medium lacking G418 sulfate and hygromycin at 15,000 cells/20 μL/well in Greiner 384-well black-walled, tissue culture (TC)-treated, clear-bottom plates (VWR). Cells were incubated overnight at 37° C. and 5% C02. The next day, cells were washed using an ELX 405 (BioTek) with assay buffer; the final volume was then aspirated to 20 μL. Next, 20 μL of a 2.3 μM stock of Fluo-4/acetoxymethyl ester (Invitrogen, Carlsbad, CA), prepared as a 2.3 mM stock in DMSO and mixed in a 1:1 ratio with 10% (w/v) Pluronic F-127 and diluted in assay buffer, was added to the wells and the cell plates were incubated for 50 minutes at 37° C. and 5% C02. Dye was removed by washing with the ELX 405 and the final volume was aspirated to 20 μL. Compound master plates were formatted in an 11 point concentration-response curve (CRC) format (1:3 dilutions) in 100% DMSO with a starting concentration of 10 mM using a BRAVO liquid handler (Agilent). Test compound CRCs were then transferred to daughter plates (240 nL) using the Echo acoustic plate reformatter (Labcyte, Sunnyvale, CA) and then diluted into assay buffer (40 μL) to a 2× stock using a Thermo Fisher Combi (Thermo Fisher Scientific, Waltham, MA).
Calcium flux was measured using the Functional Drug Screening System (FDSS) 6000 or 7000 (Hamamatsu Corporation, Tokyo, Japan) as an increase in the fluorescent static ratio. Compounds were applied to cells (20 μL, 2×) using the automated system of the FDSS at 2-4 seconds into the protocol and the data were collected at 1 Hz. At 144 seconds, 10 μL of an EC20 concentration of the muscarinic receptor agonist acetylcholine was added (5×), followed by the addition of 12 μL of an EC80 concentration of acetylcholine at the 230 second time point (5×). Agonist activity was analyzed as a concentration-dependent increase in calcium mobilization upon compound addition. Positive allosteric modulator activity was analyzed as a concentration-dependent increase in the EC20 acetylcholine response. With the acetylcholine EC20 set as baseline, the test compound EC50 is determined as the concentration that produces an increase above baseline of 50% of the maximum increase in acetylcholine response elicted by the test compound. Antagonist activity was analyzed as a concentration-dependent decrease in the ECso acetylcholine response. Concentration-response curves were generated using a four-parameter logistical equation in XLFit curve fitting software (IDBS, Bridgewater, NJ) for Excel (Microsoft, Redmond, WA) or Prism (GraphPad Software, Inc., San Diego, CA).
Compounds were synthesized as described above. Activity (EC50 and Emax) was determined in the mAChR M4 cell-based functional assay as described above and the data are shown in Table 4. The compound numbers correspond to the compound numbers used in Examples 1-33 and Tables 1, 2, and 3.
A general note: Calcium assays in cells follow changes in intracellular calcium, usually with a dye or a luminescent sensor.

SMILES strings stand for the structures.

As a reminder, the Emax is the greatest response seen or fitted, relative to the assay's reference. One may read the EC50 as the midpoint of the concentration-response curve.

For the molecule `CC1CN(c2ncnc3ccc(F)cc23)Cc2cc(Nc3cccnc3)cnc21` (stereo not drawn) [Compound 234, 6-(6-fluoroquinazolin-4-yl)-8-methyl-N-(pyridin-3-yl)-5,6,7,8-tetrahydro-1,6-naphthyridin-3-amine], the maximal effect (Emax) at 30 µM was found to be 86% and the EC50 came out at 110 nM.

For `Fc1ccc2ncnc(N3CCc4ncc(N5CCCn6ccnc65)cc4C3)c2c1` [Compound 275, 4-(3-(6,7-dihydroimidazo[1,2-a]pyrimidin-8(5H)-yl)-7,8-dihydro-1,6-naphthyridin-6(5H)-yl)-6-fluoroquinazoline], the Emax at 30 µM came to 73% and the EC50 is 2240 nM.

In the case of `Cc1ccc(F)cc1-c1cnc2c(c1)CN(c1ncnc3ccc(Cl)cc13)CC2` [Compound 301, 6-chloro-4-(3-(5-fluoro-2-methylphenyl)-7,8-dihydro-1,6-naphthyridin-6(5H)-yl)quinazoline], the maximal response (Emax) at 30 µM turned out to be 94% and the EC50 was 3060 nM.

With `COc1ccc2nc(C)nc(N3CCc4ncc(-c5ccccc5C)cc4C3)c2c1` [Compound 314, 6-methoxy-2-methyl-4-(3-(o-tolyl)-7,8-dihydro-1,6-naphthyridin-6(5H)-yl)quinazoline], the Emax at 30 µM turned out to be 77% and the concentration giving a half-maximal response (EC50) is 4670 nM.

Turning to `Fc1ccc2nc(C(F)(F)F)nc(N3CCc4ncc(-c5ccn(C6CC6)n5)cc4C3)c2c1` [Compound 65, 4-[3-(1-cyclopropylpyrazol-3-yl)-7,8-dihydro-5H-1,6-naphthyridin-6-yl]-6-fluoro-2-(trifluoromethyl)quinazoline], the maximal response (Emax) at 30 µM stood at 52% and the 50% effective concentration (EC50) is 1380 nM.

As for `COc1ccc2nc(Cl)nc(N3CCc4ncc(C(F)(F)F)cc4C3)c2c1` [Compound 166, 2-chloro-6-methoxy-4-[3-(trifluoromethyl)-7,8-dihydro-5H-1,6-naphthyridin-6-yl]quinazoline], the maximal effect (Emax) at 30 µM was 70% and the EC50 was determined as 420 nM.

For `FC(F)(F)c1cnc2c(c1)CN(c1ncnc3ccc(Cl)cc13)CC2` [Compound 140, 6-chloro-4-[3-(trifluoromethyl)-7,8-dihydro-5H-1,6-naphthyridin-6-yl]quinazoline], the Emax at 30 µM came to 105% and the concentration for a half-maximal effect (EC50) is 80 nM.

With `Cc1ccc2c(N3CCc4ncc(C(F)(F)F)cc4C3)nc(C)nc2c1` [Compound 124, 2,7-dimethyl-4-[3-(trifluoromethyl)-7,8-dihydro-5H-1,6-naphthyridin-6-yl]quinazoline], the maximum response (Emax) at 30 µM was 43% and the 50% effective concentration (EC50) was found to be 950 nM.

With `Cc1ccc2nc(Nc3ccnn3C)nc(N3CCc4ncc(Nc5ccnn5C)cc4C3)c2c1` [Compound 189, 6-methyl-N-(2-methylpyrazol-3-yl)-4-[3-[(2-methylpyrazol-3-yl)amino]-7,8-dihydro-5H-1,6-naphthyridin-6-yl]quinazolin-2-amine], the Emax at 30 µM came out at 127% and the EC50 is 180 nM.

As to `Cc1ccc2ncnc(N3CCc4ncc(-c5cnc(F)cc5C)cc4C3)c2c1` [Compound 309, 4-(3-(6-fluoro-4-methylpyridin-3-yl)-7,8-dihydro-1,6-naphthyridin-6(5H)-yl)-6-methylquinazoline], the Emax at 30 µM turned out to be 83% and the half-maximal effective concentration (EC50) was 40 nM.

In the case of `Fc1cc2ncnc(N3CCc4ncc(-c5ccnn5C5COC5)cc4C3)c2cc1F` [Compound 269, 6,7-difluoro-4-(3-(1-(oxetan-3-yl)-1H-pyrazol-5-yl)-7,8-dihydro-1,6-naphthyridin-6(5H)-yl)quinazoline], the Emax at 30 µM was 79% and the EC50 amounted to 1600 nM.

Take `Clc1nc(N2CCc3ncc(-c4cnn(C5CC5)c4)cc3C2)c2cccnc2n1` [Compound 34, 2-chloro-4-[3-(1-cyclopropylpyrazol-4-yl)-7,8-dihydro-5H-1,6-naphthyridin-6-yl]pyrido[2,3-d]pyrimidine]: the maximal response (Emax) at 30 µM amounted to 53% and the concentration giving a half-maximal response (EC50) was 600 nM.

Regarding `Cc1nn(C)cc1-c1cnc2c(c1)CN(c1nc(Cl)nc3ncccc13)CC2` [Compound 9, 2-chloro-4-[3-(1,3-dimethylpyrazol-4-yl)-7,8-dihydro-5H-1,6-naphthyridin-6-yl]pyrido[2,3-d]pyrimidine], the maximum response (Emax) at 30 µM was 66% and the EC50 was 2490 nM.

With `CC1CN(c2ncnc3cc(F)c(F)cc23)Cc2cc(N3CCOCC3)cnc21` (stereo not drawn) [Compound 252, 4-(6-(6,7-difluoroquinazolin-4-yl)-8-methyl-5,6,7,8-tetrahydro-1,6-naphthyridin-3-yl)morpholine], the maximum response (Emax) at 30 µM was determined as 90% and the EC50 was found to be 150 nM.

As to `Cc1ncc(-c2cnc3c(c2)CN(c2ncnc4ccc(Cl)cc24)CC3)s1` [Compound 40, 5-[6-(6-chloroquinazolin-4-yl)-7,8-dihydro-5H-1,6-naphthyridin-3-yl]-2-methyl-thiazole], the Emax at 30 µM was found to be 79% and the concentration for a half-maximal effect (EC50) came out at 110 nM.

In the case of `Cc1nc(N2CCc3ncc(-c4cnn(C)c4)cc3C2)c2cc(F)ccc2n1` [Compound 21, 6-fluoro-2-methyl-4-[3-(1-methylpyrazol-4-yl)-7,8-dihydro-5H-1,6-naphthyridin-6-yl]quinazoline], the Emax at 30 µM worked out at 90% and the concentration giving a half-maximal response (EC50) turned out to be 40 nM.

Consider `Cc1ccc2nc(C)nc(N3CCc4ncc(-c5cn(C)nc5C)cc4C3)c2c1` [Compound 32, 4-[3-(1,3-dimethylpyrazol-4-yl)-7,8-dihydro-5H-1,6-naphthyridin-6-yl]-2,6-dimethyl-quinazoline], for which the Emax at 30 µM came to 84% and the EC50 worked out at 780 nM.

For `Fc1cc2ncnc(N3CCc4ncc(-c5cnn(C6CC6)c5)cc4C3)c2cc1F` [Compound 54, 4-[3-(1-cyclopropylpyrazol-4-yl)-7,8-dihydro-5H-1,6-naphthyridin-6-yl]-6,7-difluoro-quinazoline], the maximal response (Emax) at 30 µM turned out to be 85% and the EC50 turned out to be 200 nM.

For the molecule `Fc1ccc2nc(Cl)nc(N3CCc4ncc(C(F)(F)F)cc4C3)c2c1` [Compound 120, 2-chloro-6-fluoro-4-[3-(trifluoromethyl)-7,8-dihydro-5H-1,6-naphthyridin-6-yl]quinazoline], the maximal response (Emax) at 30 µM is 91% and the half-maximal effective concentration (EC50) turned out to be 100 nM.

`Cc1nc(N2CCc3ncc(-c4ccnn4C)cc3C2)c2cc(Cl)ccc2n1` [Compound 45, 6-chloro-2-methyl-4-[3-(2-methylpyrazol-3-yl)-7,8-dihydro-5H-1,6-naphthyridin-6-yl]quinazoline]: the maximum response (Emax) at 30 µM is 98% and the EC50 was found to be 60 nM.

As to `COc1cc2c(N3CCc4ncc(-c5cn(C)nc5C)cc4C3)nc(C)nc2cc1F` [Compound 61, 4-[3-(1,3-dimethylpyrazol-4-yl)-7,8-dihydro-5H-1,6-naphthyridin-6-yl]-7-fluoro-6-methoxy-2-methyl-quinazoline], the maximal response (Emax) at 30 µM was 57% and the EC50 was 450 nM.
